This note sets out measurements from patent US12624018B1, “Inhibitors of RIPK2 and medical uses thereof” (Odyssey Therapeutics, Inc., priority 2022, dated 2026).

The target in the assay is T1, RIPK2 enzyme (Homo sapiens, UniProt O43353).
T1 construct: purchased Carna 09-128
In words: RIPK2 inhibition (ADP-Glo Kinase Assay). Type of assay: biochemical. The note with it: RIPK2 5 nM, ATP 150 μM, MBP substrate. The method, boiled down:
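Human RIPK2 (5 nM) preincubated with compound 30 min at room temperature in 50 mM HEPES pH 7.5, 10 mM MgCl2, 2 mM DTT, 1 mM EGTA, 0.01% Brij-35, 0.05% BSA; native swine MBP as substrate. ADP formed quantified by ADP-Glo luminescence; percent inhibition relative to DMSO and no-enzyme controls.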

Usually IC50 stands for the concentration that gives 50% inhibition.

Where two headings read alike, the source gives them in different places.

T1 sequence (O43353 1-299 limits assumed): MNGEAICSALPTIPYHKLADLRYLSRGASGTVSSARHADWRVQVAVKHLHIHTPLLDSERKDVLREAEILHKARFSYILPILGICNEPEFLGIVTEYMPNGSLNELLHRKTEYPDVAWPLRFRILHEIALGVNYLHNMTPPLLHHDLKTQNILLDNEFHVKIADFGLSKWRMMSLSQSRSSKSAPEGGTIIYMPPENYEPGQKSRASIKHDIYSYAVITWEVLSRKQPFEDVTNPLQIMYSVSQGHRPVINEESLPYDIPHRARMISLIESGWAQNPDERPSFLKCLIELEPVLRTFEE

Regarding `COCCN(C)C(=O)c1ccc2nccc(Oc3ccc(CC(=O)Nc4cnn(C(C)(C)C)c4)c(F)c3C)c2c1` [Compound 343, 4-(4-(2-((1-(tert-butyl)-1H-pyrazol-4-yl)amino)-2-oxoethyl)-3-fluoro-2-methyl-phenoxy)-N-(2-methoxyethyl)-N-methyl-quinoline-6-carboxamide], the 50% inhibitory concentration (IC50) (read-out: RIPK2 IC50) was under 2.5 nM.

On to `Cc1c(Oc2ccnc3ccc(C(=O)N4CCC4)cc23)ccc(CC(=O)Nc2cnn(C(C)(C)C)c2)c1F` [Compound 344, 2-(4-((6-(azetidine-1-carbonyl)quinolin-4-yl)oxy)-2-fluoro-3-methyl-phenyl)-N-(1-(tert-butyl)-1H-pyrazol-4-yl)acetamide], for which, where the note is “read-out: RIPK2 IC50”, the half-inhibitory concentration (IC50) was under 2.5 nM.

Take `Cc1c(Oc2ccnc3ccc(C(=O)N4CC(F)C4)cc23)ccc(CC(=O)Nc2cnn(C(C)(C)C)c2)c1F` [Compound 345, N-(1-(tert-butyl)-1H-pyrazol-4-yl)-2-(2-fluoro-4-((6-(3-fluoro-azetidine-1-carbonyl)quinolin-4-yl)oxy)-3-methylphenyl) acetamide]: the IC50 (read-out: RIPK2 IC50) is under 2.5 nM.

In the case of `Cc1c(Oc2ccnc3ccc(C(=O)N4CC(C#N)C4)cc23)ccc(CC(=O)Nc2cnn(C(C)(C)C)c2)c1F` [Compound 346, N-(1-(tert-butyl)-1H-pyrazol-4-yl)-2-(4-((6-(3-cyano-azetidine-1-carbonyl)quinolin-4-yl)oxy)-2-fluoro-3-methylphenyl) acetamide], the concentration for half-maximal inhibition (IC50) (read-out: RIPK2 IC50) was under 2.5 nM.

For the molecule `Cc1c(Oc2ccnc3ccc(C(=O)N4CC5(COC5)C4)cc23)ccc(CC(=O)Nc2cnn(C(C)(C)C)c2)c1F` [Compound 347, 2-(4-((6-(2-oxa-6-azaspiro[3.3]heptane-6-carbonyl)quinolin-4-yl)oxy)-2-fluoro-3-methyl-phenyl)-N-(1-(tert-butyl)-1H-pyrazol-4-yl)acetamide], where the note is “read-out: RIPK2 IC50”, the IC50 was under 2.5 nM.

As to `Cc1c(Oc2ccnc3ccc(C(=O)N4CC(O)C4)cc23)ccc(CC(=O)Nc2cnn(C(C)(C)C)c2)c1F` [Compound 348, N-(1-(tert-butyl)-1H-pyrazol-4-yl)-2-(2-fluoro-4-((6-(3-hydroxy-azetidine-1-carbonyl)quinolin-4-yl)oxy)-3-methyl-phenyl) acetamide], the half-maximal inhibitory concentration (IC50) (read-out: RIPK2 IC50) is under 2.5 nM.

Consider `Cc1c(Oc2ccnc3ccc(C(=O)N4CC(N)C4)cc23)ccc(CC(=O)Nc2cnn(C(C)(C)C)c2)c1F` [Compound 349, 2-(4-((6-(3-amino-azetidine-1-carbonyl)quinolin-4-yl)oxy)-2-fluoro-3-methyl-phenyl)-N-(1-(tert-butyl)-1H-pyrazol-4-yl)acetamide], for which, where the note is “read-out: RIPK2 IC50”, the IC50 was under 2.5 nM.

Consider `Cc1c(Oc2ccnc3ccc(C(=O)N4CCCC4)cc23)ccc(CC(=O)Nc2cnn(C(C)(C)C)c2)c1F` [Compound 350, N-(1-(tert-butyl)-1H-pyrazol-4-yl)-2-(2-fluoro-3-methyl-4-((6-(pyrrolidine-1-carbonyl)quinolin-4-yl)oxy)phenyl) acetamide], for which the IC50 (read-out: RIPK2 IC50) was under 2.5 nM.

Turning to `Cc1c(Oc2ccnc3ccc(C(=O)N4CCOCC4)cc23)ccc(CC(=O)Nc2cnn(C(C)(C)C)c2)c1F` [Compound 355, N-(1-(tert-butyl)-1H-pyrazol-4-yl)-2-(2-fluoro-3-methyl-4-((6-(morpholine-4-carbonyl)quinolin-4-yl)oxy)phenyl) acetamide], where the note is “read-out: RIPK2 IC50”, the IC50 is under 2.5 nM.

As to `Cc1c(Oc2ccnc3ccc(C(=O)N4CCNCC4)cc23)ccc(CC(=O)Nc2cnn(C(C)(C)C)c2)c1F` [Compound 356, N-(1-(tert-butyl)-1H-pyrazol-4-yl)-2-(2-fluoro-3-methyl-4-((6-(piperazine-1-carbonyl)quinolin-4-yl)oxy)phenyl) acetamide], the 50% inhibitory concentration (IC50) (read-out: RIPK2 IC50) was under 2.5 nM.

Consider `Cc1c(Oc2ccnc3ccc(C(=O)N4CCC(O)CC4)cc23)ccc(CC(=O)Nc2cnn(C(C)(C)C)c2)c1F` [Compound 357, N-(1-(tert-butyl)-1H-pyrazol-4-yl)-2-(2-fluoro-4-((6-(4-hydroxy-piperidine-1-carbonyl)quinolin-4-yl)oxy)-3-methyl-phenyl) acetamide], for which the IC50 (read-out: RIPK2 IC50) is under 2.5 nM.

Consider `Cc1cc(CC(=O)Nc2cnn(C(C)(C)C)c2)c(F)cc1Oc1ccnc2ccc(C(=O)O)cc12` [Compound 358, 4-(4-(2-((1-(tert-butyl)-1H-pyrazol-4-yl)amino)-2-oxoethyl)-5-fluoro-2-methyl-phenoxy) quinoline-6-carboxylic acid], for which, under “read-out: RIPK2 IC50”, the concentration for half-maximal inhibition (IC50) was under 2.5 nM.

For `Cc1cc(CC(=O)Nc2cnn(C(C)(C)C)c2)c(F)cc1Oc1ccnc2ccc(C(=O)N(C)C)cc12` [Compound 361, 4-(4-(2-((1-(tert-butyl)-1H-pyrazol-4-yl)amino)-2-oxoethyl)-5-fluoro-2-methyl-phenoxy)-N,N-dimethyl-quinoline-6-carboxamide], the IC50 (read-out: RIPK2 IC50) is under 2.5 nM.

As to `Cc1cc(CC(=O)Nc2cnn(C(C)(C)C)c2)c(F)cc1Oc1ccnc2ccc(C(=O)NCC(F)(F)F)cc12` [Compound 362, 4-(4-(2-((1-(tert-butyl)-1H-pyrazol-4-yl)amino)-2-oxoethyl)-5-fluoro-2-methyl-phenoxy)-N-(2,2,2-trifluoroethyl) quinoline-6-carboxamide], for the setting “read-out: RIPK2 IC50”, the IC50 was under 2.5 nM.

On to `CCNC(=O)c1ccc2nccc(Oc3cc(F)c(CC(=O)Nc4cnn(C(C)(C)C)c4)cc3C)c2c1` [Compound 363, 4-(4-(2-((1-(tert-butyl)-1H-pyrazol-4-yl)amino)-2-oxoethyl)-5-fluoro-2-methyl-phenoxy)-N-ethyl-quinoline-6-carboxamide], for which the IC50 (read-out: RIPK2 IC50) is under 2.5 nM.

Regarding `Cc1cc(CC(=O)Nc2cnn(C(C)(C)C)c2)c(F)cc1Oc1ccnc2ccc(C(=O)NCCO)cc12` [Compound 364, 4-(4-(2-((1-(tert-butyl)-1H-pyrazol-4-yl)amino)-2-oxoethyl)-5-fluoro-2-methyl-phenoxy)-N-(2-hydroxy-ethyl) quinoline-6-carboxamide], under “read-out: RIPK2 IC50”, the 50% inhibitory concentration (IC50) is under 2.5 nM.

As to `Cc1cc(CC(=O)Nc2cnn(C(C)(C)C)c2)c(F)cc1Oc1ccnc2ccc(C(=O)N(C)CCO)cc12` [Compound 365, 4-(4-(2-((1-(tert-butyl)-1H-pyrazol-4-yl)amino)-2-oxoethyl)-5-fluoro-2-methyl-phenoxy)-N-(2-hydroxy-ethyl)-N-methyl-quinoline-6-carboxamide], for the setting “read-out: RIPK2 IC50”, the half-maximal inhibitory concentration (IC50) is under 2.5 nM.

In the case of `Cc1cc(CC(=O)Nc2cnn(C(C)(C)C)c2)c(F)cc1Oc1ccnc2ccc(C(=O)N(CCO)CCO)cc12` [Compound 366, 4-(4-(2-((1-(tert-butyl)-1H-pyrazol-4-yl)amino)-2-oxoethyl)-5-fluoro-2-methyl-phenoxy)-N,N-bis(2-hydroxyethyl) quinoline-6-carboxamide], the concentration for half-maximal inhibition (IC50) (read-out: RIPK2 IC50) was under 2.5 nM.

With `COCCNC(=O)c1ccc2nccc(Oc3cc(F)c(CC(=O)Nc4cnn(C(C)(C)C)c4)cc3C)c2c1` [Compound 367, 4-(4-(2-((1-(tert-butyl)-1H-pyrazol-4-yl)amino)-2-oxoethyl)-5-fluoro-2-methyl-phenoxy)-N-(2-methoxy-ethyl) quinoline-6-carboxamide], for the setting “read-out: RIPK2 IC50”, the IC50 was under 2.5 nM.

For `COCCN(C)C(=O)c1ccc2nccc(Oc3cc(F)c(CC(=O)Nc4cnn(C(C)(C)C)c4)cc3C)c2c1` [Compound 368, 4-(4-(2-((1-(tert-butyl)-1H-pyrazol-4-yl)amino)-2-oxoethyl)-5-fluoro-2-methyl-phenoxy)-N-(2-methoxy-ethyl)-N-methyl-quinoline-6-carboxamide], the half-inhibitory concentration (IC50) (RIPK2 IC50 (nM)) is under 2.5 nM.

Take `Cc1cc(CC(=O)Nc2cnn(C(C)(C)C)c2)c(F)cc1Oc1ccnc2ccc(C(=O)N3CCC3)cc12` [Compound 369, 2-(4-((6-(azetidine-1-carbonyl)quinolin-4-yl)oxy)-2-fluoro-5-methyl-phenyl)-N-(1-(tert-butyl)-1H-pyrazol-4-yl)acetamide]: the IC50 (read-out: RIPK2 IC50) is under 2.5 nM.

For the molecule `Cc1cc(CC(=O)Nc2cnn(C(C)(C)C)c2)c(F)cc1Oc1ccnc2ccc(C(=O)N3CC(F)C3)cc12` [Compound 370, N-(1-(tert-butyl)-1H-pyrazol-4-yl)-2-(2-fluoro-4-((6-(3-fluoro-azetidine-1-carbonyl)quinolin-4-yl)oxy)-5-methyl-phenyl) acetamide], the IC50 (read-out: RIPK2 IC50) was under 2.5 nM.

As to `Cc1cc(CC(=O)Nc2cnn(C(C)(C)C)c2)c(F)cc1Oc1ccnc2ccc(C(=O)N3CC(C#N)C3)cc12` [Compound 371, N-(1-(tert-butyl)-1H-pyrazol-4-yl)-2-(4-((6-(3-cyano-azetidine-1-carbonyl)quinolin-4-yl)oxy)-2-fluoro-5-methyl-phenyl) acetamide], the IC50 (read-out: RIPK2 IC50) was under 2.5 nM.

As for `Cc1cc(CC(=O)Nc2cnn(C(C)(C)C)c2)c(F)cc1Oc1ccnc2ccc(C(=O)N3CC4(COC4)C3)cc12` [Compound 372, 2-(4-((6-(2-oxa-6-azaspiro[3.3]heptane-6-carbonyl)quinolin-4-yl)oxy)-2-fluoro-5-methyl-phenyl)-N-(1-(tert-butyl)-1H-pyrazol-4-yl)acetamide], the IC50 (read-out: RIPK2 IC50) was under 2.5 nM.

Take `Cc1cc(CC(=O)Nc2cnn(C(C)(C)C)c2)c(F)cc1Oc1ccnc2ccc(C(=O)N3CC(O)C3)cc12` [Compound 373, N-(1-(tert-butyl)-1H-pyrazol-4-yl)-2-(2-fluoro-4-((6-(3-hydroxy-azetidine-1-carbonyl)quinolin-4-yl)oxy)-5-methylphenyl) acetamide]: the IC50 (read-out: RIPK2 IC50) is under 2.5 nM.

As to `Cc1cc(CC(=O)Nc2cnn(C(C)(C)C)c2)c(F)cc1Oc1ccnc2ccc(C(=O)N3CC(N)C3)cc12` [Compound 374, 2-(4-((6-(3-amino-azetidine-1-carbonyl)quinolin-4-yl)oxy)-2-fluoro-5-methyl-phenyl)-N-(1-(tert-butyl)-1H-pyrazol-4-yl)acetamide], the IC50 (read-out: RIPK2 IC50) is under 2.5 nM.

Take `Cc1cc(CC(=O)Nc2cnn(C(C)(C)C)c2)c(F)cc1Oc1ccnc2ccc(C(=O)N3CCCC3)cc12` [Compound 377, N-(1-(tert-butyl)-1H-pyrazol-4-yl)-2-(2-fluoro-5-methyl-4-((6-(pyrrolidine-1-carbonyl)quinolin-4-yl)oxy)phenyl) acetamide]: where the note is “read-out: RIPK2 IC50”, the 50% inhibitory concentration (IC50) was under 2.5 nM.
